What was measured:
[1] = test system: histamine release from the peritoneal cavity; assay: Histamine release from the peritoneal cavity (dextran i.p.); format: in vivo, male Wistar rats; settings: Rattus norvegicus, ip; dose required for 50% inhibition; test compound i.p., dextran 180 mg/kg i.p.; rats
Method: Histamine release from the peritoneal cavity:
The method used was similar to that described by Hanahoe et al. (T.H.P. Hanahoe, A. Holliman, D. Gordon and W. Wieczorek, J. Pharm. Pharmac. 24, 666 (1972)). Groups of ten male Wistar rats (200-230 g) were injected intraperitoneally with 1 ml normal saline (0.9%) containing different amounts of test compound. A half minutes later they received an intraperitoneal injection of dextran (180 mg/kg, molecular weight about 250,000) or saline as vehicle control. Five minutes later the animals were killed, the peritoneal fluid was collected and centrifuged, and the supernatant was assayed fluorophotometrically for histamine. […] The percent inhibition was calculated using the following formula: [formula] The ED50, the dose required for 50% inhibition, was calculated from the dose-responsive curve.

[2] = test system: SRS-A release from lung tissue; assay: Release of slow reacting substance of anaphylaxis (SRS-A) from sensitized lung tissue; format: cell-based, Guinea-pigs; settings: Cavia porcellus, sensitized guinea-pig lung tissue, egg albumen 100 μg/ml; for inhibition at 0.01 µg/mL: 0.01 μg/ml; for inhibition at 0.1 µg/mL: 0.1 μg/ml
Method: Release of slow reacting substance of analphylaxis (SRS-A):
Guinea-pigs were sensitized with egg albumen, which was administered as a 10% solution, 100 mg both intraperitoneally and subcutaneously. Three to four weeks later the animals were killed by a blow on the head and the heart and lungs removed from the body and cleaned of blood. The lung tissue was dissected free from the heart, trachea and major bronchioles and then finely chopped. Portions of the lung tissue in 5 ml of Tyrode solution were preincubated with each test solution (50 μl) containing a test compound for 5 minutes at 37° C, to those were added 50 μl of egg albumen (100 μg/ml in a final concentration). The incubation mixture were further incubated for 15 minutes at 37° C. After centrifugation, the supernatant was assayed for SRS-A. The activity of SRS-A was assayed on the isolated guinea-pig ileum in the presence of atropine (5 × 10^-8 g/ml) and pyribenzamine (10^-7 g/ml). The percent inhibition was calculated using the following formula: [formula]

[3] = test system: histamine release from the peritoneal cavity; settings: dextran-induced histamine release, in this experimental method (Hanahoe et al.); cited from earlier work

Row | Compound | ED50 [1] | inhibition at 0.01 µg/mL [2] | inhibition at 0.1 µg/mL [2] | inhibition of the release of histamine [3]
1 | O=c1c2cc(-c3nnn[nH]3)ccc2oc2ncccc12 [Compound A, 7-(5-1H-tetrazolyl)-5-oxo-5H-[1]benzopyrano[2,3-b]pyridine] | 1 µg/kg | 25.2% | 35.3% | –
2 | O=c1c2cccnc2oc2c(Cl)cc(-c3nnn[nH]3)cc12 [Compound B, 9-chloro-7-(5-1H-tetrazolyl)-5-oxo-5-H-[1]benzopyrano[2,3-b]-pyridine] | 0.25 µg/kg | 19% | 22.6% | –
3 | O=C(O)c1cc(=O)c2c(OCC(O)COc3cccc4oc(C(=O)O)cc(=O)c34)cccc2o1 [disodium cromoglycate] | – | – | – | inhibits markedly
